Oligonucleotides are written 5' to 3', each unit as a sugar letter and its base; * is a phosphorothioate linkage, no mark a phosphodiester; rarer units and linkages stand in square brackets, end groups in braces. Plain capitals give the bases only. {ST23(ps)x3-ST43} = conjugate of three ST23 units joined by phosphorothioates, then ST43, saccharide (preferably GalNAc) moiety; {VP} = (E)-vinylphosphonate; m = 2'-O-methyl; f = 2'-fluoro
Tests used:
CNNM4 mRNA [1] = assay: CNNM4 mRNA in liver of wild-type mice after single subcutaneous dose (Examples 12-14); type: in vivo, mouse; conditions: wild-type C57BL/6 mice
Method: (§1) Five- to seven-week old male C57BL/6 mice were treated with a single dose of 1 or 5 mg siRNA conjugate per kg body weight by subcutaneous injection. Control groups received a subcutaneous injection with the vehicle PBS. Two weeks after the treatment, liver samples were collected from all mice and snap frozen. RNA was extracted from liver samples and CNNM4 and Actin mRNA levels were determined by Taqman qRT-PCR. Values obtained for CNNM4 mRNA were normalized to values generated for the housekeeping gene Actin and related to mean of untreated sample (ut) set at 1-fold target gene expression. Each bar represents mean value from 6 animals +/-SD.
Five- to seven-week old male C57BL/6 mice were treated with a single dose of 0.3 or 1 mg siRNA conjugate per kg body weight by subcutaneous injection. Control groups received a subcutaneous injection with the vehicle PBS. Two weeks after the treatment, liver samples were collected from all mice and snap frozen. RNA was extracted from liver samples and CNNM4 and Actin mRNA levels were determined by Taqman qRT-PCR. Values obtained for CNNM4 mRNA were normalized to values generated for the housekeeping gene Actin and related to mean of untreated sample (ut) set at 1-fold target gene expression. Each bar represents mean value from 6 animals +/-SD.
as §1, with “1” for “1 or 5”, “Five” for “Two”, “PBS treated cohort (PBS)” for “untreated sample (ut)”

0.1% MCDD NASH model = assay: Rodent 0.1% MCDD NASH model: steatosis, ROS, macrophages, fibrosis, serum Mg2+ (Example 18); type: in vivo, mouse; conditions: 0.1% MCDD mice
Method: Three-month old male C57BL/6 mice were maintained on a diet deficient in choline with 0.1% methionine (0.1%MCDD) (A02082006i, Research Diets, Inc., New Jersey, USA) for six weeks or fed a standard chow (SC). After three weeks of 0.1% MCDD, mice were treated with […] CNNM4 siRNA conjugate (EU414) per body weight. Control groups fed with 0.1% MCD received 1 mg/kg non-targeting siRNA conjugate (EU400). Control mice fed with normal chow (SC) received the vehicle PBS at the same time point (three weeks). Liver samples were collected from all mice at the end of the study and cryopreserved by embedding in […] cryocompound (OCT) or fixed with formalin and embedded in paraffin for preparation of sections. Lipid bodies and reactive oxygen species (ROS) were detected in cryosections by staining with Sudan red and Dihydroxyetidium (DHE), respectively. Liver fibrosis was assessed in paraffine sections by staining of the smooth muscle cell marker alpha smooth muscle actin (αSMA) by immunohistochemistry, as well as by detection of collagen fibers by Sirius red staining. Macrophages were detected by immunohistochemistry, by F4/80 staining of paraffin-embedded liver sections. Blood samples were collected from all animals at the six-week time point for serum preparation. Serum Mg^2+ levels were then determined using the QuantiCrom™Magnesium Assay Kit (BioAssay Systems, USA).
These figures show quantifications of stained area percentages from each individual staining calculated using FIJI (https://imagej.net/Fiji.) in box and whisker plots with 5-95% percentile. n=5-7. (a.u. = arbitrary units).

murine hepatocytes = assay: Acetaminophen (APAP) induced cell death in hepatocytes, Tunel and Trypan Blue (Example 19); type: cell-based; conditions: 1 nM and 10 nM for 6 hours, 10 mM acetaminophen for 6 hours
Method: Freshly prepared murine hepatocytes were seeded in multi-well plates. Upon attachment, cells were incubated for 6 hours with 1 nM and 10 nM of EU404 or EU414 or left untreated. Thereafter, cells were cultured in serum-free culture medium (MEM) for 13 to 14 hours. Subsequently, they remained untreated (Ut) or 10 mM acetaminophen was added to the medium (APAP). 6 hours later, cells were stained by Tunel assay or Trypan Blue staining to determine the proportion of cells that were necrotic (Tunel positive) or had undergone cell death (Trypan Blue positive).

CNNM4 = CNNM4 expression in hepatocytes of the APAP experiment (Example 19); type: cell-based; conditions: murine hepatocytes, 1 nM and 10 nM for 6 hours; FIG. 25A
CNNM4 mRNA [2] = assay: CNNM4 mRNA in liver of DIO-NASH mice (Example 24); type: in vivo, mouse; conditions: 1 mg/kg or 5 mg/kg s.c. at 4, 8 and 12 weeks, liver 4 weeks after last treatment, FIG. 30
Method: 5-week old C57BL/6 male mice were maintained on a DIO-NASH diet for about 32 weeks and randomized based on pre-liver biopsy fibrosis and steatosis score. Only animals with fibrosis score of ≥ 1 and steatosis score of ≥ 2 were included in the study. Animals were then maintained on DIO-NASH diet for another 16 weeks. At the 4 week, 8 week, and 12 week time points after the pre liver biopsy mice were treated with 1 mg/kg or 5 mg/kg EU422, respectively or with the vehicle PBS by subcutaneous injection. 4 weeks after the last treatment, liver samples were collected from all mice and snap frozen. RNA was extracted from liver samples and CNNM4 and HPRT mRNA levels were determined by Taqman qRT-PCR. Values obtained for CNNM4 mRNA were normalized to values generated for the house keeping gene HPRT and related to mean of untreated sample (ut) set at 1-fold target gene expression. Each bar represents mean value from 15 animals +/-SD.

Substance | CNNM4 mRNA levels in the liver (CNNM4 mRNA [1]; two weeks after single dose of 1 or 5 mg/kg s.c., FIG. 18) | Liver steatosis (lipid bodies, Sudan red) (0.1% MCDD NASH model; 1 or 5 mg/kg at week 3, liver at week 6, FIG. 24A) | Reactive oxygen species (DHE staining) (0.1% MCDD NASH model; 1 or 5 mg/kg at week 3, liver at week 6, FIG. 24B) | Macrophage infiltration (F4/80 positive cells) in the liver (0.1% MCDD NASH model; 1 or 5 mg/kg at week 3, liver at week 6, FIG. 24C) | Liver fibrosis (αSMA, Sirius red) (0.1% MCDD NASH model; 1 or 5 mg/kg at week 3, liver at week 6, FIGS. 24D and 24E) | Serum Mg2+ levels (0.1% MCDD NASH model; 1 or 5 mg/kg at week 3, serum at six-week time point, FIG. 24F) | Tripan Blue positive cells (cell death marker) (murine hepatocytes) | Tunel positive cells (necrosis marker) (murine hepatocytes) | CNNM4 expression (CNNM4) | CNNM4 mRNA levels in the liver (CNNM4 mRNA [1]; five weeks after single dose of 1 mg/kg s.c., FIG. 20) | CNNM4 mRNA levels in the liver (CNNM4 mRNA [1]; two weeks after single dose of 0.3 or 1 mg/kg s.c., FIG. 19) | CNNM4 mRNA levels in the liver (CNNM4 mRNA [2])
EU414: CNNM4 siRNA conjugate, duplex EU414A/EU414B; consists of SEQ ID NO: 237 and SEQ ID NO: 238 (chain 1 {VP}-mUfGmAfCmAfAmAfAmGfAmCfAmCfAmAfGmA*fG*mU; chain 2 {ST23(ps)x3-ST43}*mAmCmUmCmUmUfGfUfGmUmCmUmUmUmUmGmU*mC*mA) | reduction of CNNM4 mRNA levels | reduction of liver steatosis | reduction of reactive oxygen species | reduction of macrophage infiltration | reduction in liver fibrosis | reduction of serum Mg^2+ levels | reduction | reduction of Tunel positive cells | reduction of CNNM4 expression |  |  | 
EU422: CNNM4 siRNA conjugate, duplex EU422A/EU422B; consists of SEQ ID NO: 461 and SEQ ID NO: 462 (chain 1 UGACAAAAGACACAAGAGU; chain 2 ACUCUUGUGUCUUUUGUCA; chain 1: sugars from the 5' end mfmfmfmfmfmfmfmfmfm, 5' {VP}, backbone not given here; chain 2: sugars from the 5' end m6 f3 m10, backbone not given here; undefined (ps2) end linkages, 5' conjugate ST23/ST41 on second strand, further chemistry not fully specified) |  |  |  |  |  |  |  |  |  | reduction of CNNM4 mRNA levels | reduction of CNNM4 mRNA levels | dose dependent reduction of CNNM4 mRNA levels
